Source: US9913843B2, “Protein kinase C inhibitors and uses thereof” (Rigel Pharmaceuticals, Inc., priority 2012, dated 2018)
Read-outs that look alike come from different tables or passages of the source.

Test system: PKC mediated IL-2 production in human primary T cells
Assay: IL-2 ELISA, human primary T cell, anti CD3+CD28+ (whole cell functional assay for PKC mediated IL-2 production)
Format: cell-based
In short: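 Primary human T cells (PBMC-derived, expanded on plate-bound anti-CD3/CD28 with IL-2, then IL-2-washed) were pre-incubated 1 h at 37 °C with compound, then stimulated on 1 μg/ml anti-CD3 plus 5 μg/ml anti-CD28. After 24 h at 37 °C, secreted IL-2 was measured by ELISA; counter assay used 0.5 ng/ml PMA plus 0.1 μM ionomycin (final).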

[1] = 24 h, human primary T cells stimulated with anti-CD3 + anti-CD28, IL-2 by ELISA, read-out: IC50 for blocking IL-2 production
[2] = human primary T cells stimulated with anti-CD3 + anti-CD28, 24 h, IL-2 by ELISA, 8 pt, read-out: IL2 ELISA, Human primary T cell, anti-CD3 + CD28, 8 pt (IC50)

SMILES | IC50 [1] [nM] | IC50 [2] [nM]
Cn1nnn(-c2cc(Nc3ncc(Cl)c(NC[C@@H]4CCCN5CCCC[C@H]45)n3)c(F)cc2O)c1=O [Compound 146, 1-(5-((5-chloro-4-((((1S,9aR)-octahydro-2H-quinolizin-1-yl)methyl)amino)pyrimidin-2-yl)amino)-4-fluoro-2-hydroxyphenyl)-4-methyl-1,4-dihydro-5H-tetrazol-5-one] | < 30000 | 1980
Cn1nnn(-c2cc(Nc3ncc(F)c(NC[C@@H]4CCCN5CCCC[C@H]45)n3)c(F)cc2O)c1=O [Compound 147, 1-(5-((5-fluoro-4-((((1S,9aR)-octahydro-2H-quinolizin-1-yl)methyl)amino)pyrimidin-2-yl)amino)-4-fluoro-2-hydroxyphenyl)-4-methyl-1,4-dihydro-5H-tetrazol-5-one] | < 30000 | 5060
Cn1nnn(-c2cc(Nc3ncc(F)c(NC[C@@H]4CCCN5CCCC[C@H]45)n3)c(F)cc2OC(C)(C)CO)c1=O [Compound 148, 1-(4-fluoro-5-((5-fluoro-4-((((1S,9aR)-octahydro-2H-quinolizin-1-yl)methyl)amino)pyrimidin-2-yl)amino)-2-((1-hydroxy-2-methylpropan-2-yl)oxy)phenyl)-4-methyl-1,4-dihydro-5H-tetrazol-5-one] | < 30000 | 1590
C[C@H](O)COc1cc(F)c(Nc2ncc(F)c(NC[C@@H]3CCCN4CCCC[C@H]34)n2)cc1-n1nnn(C)c1=O [Compound 149, 1-(4-fluoro-5-((5-fluoro-4-((((1S,9aR)-octahydro-2H-quinolizin-1-yl)methyl)amino)pyrimidin-2-yl)amino)-2-((S)-2-hydroxypropoxy)phenyl)-4-methyl-1,4-dihydro-5H-tetrazol-5-one] | < 30000 | 266
CCOC(=O)C(C)(C)Oc1cc(F)c(Nc2ncc(C#N)c(NC[C@@H]3CCCN4CCCC[C@H]34)n2)cc1-n1nnn(C)c1=O [Compound 150, ethyl 2-(4-((5-cyano-4-((((1S,9aR)-octahydro-2H-quinolizin-1-yl)methyl)amino)pyrimidin-2-yl)amino)-5-fluoro-2-(4-methyl-5-oxo-4,5-dihydro-1H-tetrazol-1-yl)phenoxy)-2-methylpropanoate] | < 30000 | 1140
Cn1nnn(-c2cc(Nc3ncc(C#N)c(NC[C@@H]4CCCN5CCCC[C@H]45)n3)c(F)cc2OC(C)(C)CO)c1=O [Compound 151, 2-((2-fluoro-4-((1-hydroxy-2-methylpropan-2-yl)oxy)-5-(4-methyl-5-oxo-4,5-dihydro-1H-tetrazol-1-yl)phenyl)amino)-4-((((1S,9aR)-octahydro-2H-quinolizin-1-yl)methyl)amino)pyrimidine-5-carbonitrile] | < 30000 | 306
C[C@H](O)COc1cc(F)c(Nc2ncc(Cl)c(NC[C@@H]3CCCN4CCCC[C@H]34)n2)cc1-n1nnn(C)c1=O [Compound 152, 1-(5-((5-chloro-4-((((1S,9aR)-octahydro-2H-quinolizin-1-yl)methyl)amino)pyrimidin-2-yl)amino)-4-fluoro-2-((S)-2-hydroxypropoxy)phenyl)-4-methyl-1,4-dihydro-5H-tetrazol-5-one] | < 30000 | 89.8
Cn1nnn(-c2cc(Nc3ncc(Cl)c(NC[C@@H]4CCCN5CCCC[C@H]45)n3)c(F)cc2OC(C)(C)CO)c1=O [Compound 153, 1-(5-((5-chloro-4-((((1S,9aR)-octahydro-2H-quinolizin-1-yl)methyl)amino)pyrimidin-2-yl)amino)-4-fluoro-2-((1-hydroxy-2-methylpropan-2-yl)oxy)phenyl)-4-methyl-1,4-dihydro-5H-tetrazol-5-one] | < 30000 | 832
Cn1nnn(-c2cc(Nc3ncc(F)c(NC[C@@H]4CCCN5CCCC[C@H]45)n3)c(F)cc2OCC(C)(C)O)c1=O [Compound 154, 1-(4-fluoro-5-((5-fluoro-4-((((1S,9aR)-octahydro-2H-quinolizin-1-yl)methyl)amino)pyrimidin-2-yl)amino)-2-(2-hydroxy-2-methylpropoxy)phenyl)-4-methyl-1,4-dihydro-5H-tetrazol-5-one] | < 30000 | 188
Cn1nnn(-c2cc(Nc3ncc(Cl)c(NC[C@@H]4CCCN5CCCC[C@H]45)n3)c(F)cc2OCC(C)(C)O)c1=O [Compound 155, 1-(5-((5-chloro-4-((((1S,9aR)-octahydro-2H-quinolizin-1-yl)methyl)amino)pyrimidin-2-yl)amino)-4-fluoro-2-(2-hydroxy-2-methylpropoxy)phenyl)-4-methyl-1,4-dihydro-5H-tetrazol-5-one] | < 30000 | 136
Cn1nnn(-c2cc(Nc3ncc(C#N)c(NC[C@@H]4CCCN5CCCC[C@H]45)n3)c(F)cc2OCC(C)(C)O)c1=O [Compound 156, 2-((2-fluoro-4-(2-hydroxy-2-methylpropoxy)-5-(4-methyl-5-oxo-4,5-dihydro-1H-tetrazol-1-yl)phenyl)amino)-4-((((1S,9aR)-octahydro-2H-quinolizin-1-yl)methyl)amino)pyrimidine-5-carbonitrile] | < 30000 | 27.6

Now from value to molecule:

IC50 [1] [nM] | IC50 [2] [nM] | SMILES
< 30000 | 3550 | OCCOc1ccc(Nc2nccc(NC[C@@H]3CCCN4CCCC[C@H]34)n2)cc1-n1cnnn1 [Compound 141, 2-(4-((4-((((1S,9aR)-octahydro-2H-quinolizin-1-yl)methyl)amino)pyrimidin-2-yl)amino)-2-(1H-tetrazol-1-yl)phenoxy)ethan-1-ol]
< 30000 | 66.2 | C[C@H](O)COc1cc(F)c(Nc2ncc(C#N)c(NC[C@@H]3CCCN4CCCC[C@H]34)n2)cc1-n1nnn(C)c1=O [Compound 142, 2-((2-fluoro-4-((S)-2-hydroxypropoxy)-5-(4-methyl-5-oxo-4,5-dihydro-1H-tetrazol-1-yl)phenyl)amino)-4-((((1 S,9aR)-octahydro-2H-quinolizin-1-yl)methyl)amino)pyrimidine-5-carbonitrile]
< 30000 | 147 | C[C@@H](O)COc1cc(F)c(Nc2ncc(C#N)c(NC[C@@H]3CCCN4CCCC[C@H]34)n2)cc1-n1nnn(C)c1=O [Compound 143, 2-((2-fluoro-4-((R)-2-hydroxypropoxy)-5-(4-methyl-5-oxo-4,5-dihydro-1H-tetrazol-1-yl)phenyl)amino)-4-((((1S,9aR)-octahydro-2H-quinolizin-1-yl)methyl)amino)pyrimidine-5-carbonitrile]
< 30000 | 12400 | CC(O)COc1ccc(Nc2ncc(C#N)c(NC[C@@H]3CCCN4CCCC[C@H]34)n2)cc1C#N (stereo partly drawn) [Compound 144, 2-((3-cyano-4-(2-hydroxypropoxy)phenyl)amino)-4-((((1S,9aR)-octahydro-2H-quinolizin-1-yl)methyl)amino)pyrimidine-5-carbonitrile]
< 30000 | 4630 | CC(O)COc1ccc(Nc2ncc(F)c(NC[C@@H]3CCCN4CCCC[C@H]34)n2)cc1C#N (stereo partly drawn) [Compound 145, 5-((5-fluoro-4-((((1S,9aR)-octahydro-2H-quinolizin-1-yl)methyl)amino)pyrimidin-2-yl)amino)-2-(2-hydroxypropoxy)benzonitrile]
